Article PMC7405012, “Detection of Chaetomium globosum, Ch. cochliodes and Ch. rectangulare during the Diversity Tracking of Mycotoxin-Producing Chaetomium-like Isolates Obtained in Buildings in Finland” (Toxins, 2020)
Converted amounts (≈) assume the structure as drawn. Where two headings read alike, the source gives them in different places.

Key:
[1] = test system: porcine kidney cells (PK-15); experiment: cells; format: cell-based; conditions: for EC50: Sus scrofa, 48 h, read-out: EC50 ICP PK-15 2 days
[2] = test system: resting boar spermatozoa; experiment: Mitochondrial membrane potential (ΔΨm) assay with JC-1 in resting spermatozoa; format: cell-based; conditions: resting boar sperm; for EC50: Spermatozoa
Protocol: (§1) Three criteria were assessed: (1) the motility inhibition of resting boar spermatozoa (BSMIR); (2) the change in mitochondrial membrane potential (ΔΨ) observed using the potentiometric dye JC-1; and (3) the plasma membrane integrity (SMIDR) observed using the viability stain calcein-AM + propidium iodide (PI). […] By contrast, the EC50 concentrations in the SMIDR assays, which measured the lethal damages in plasma membrane after incubation for two days, were >50 times higher (Figure 5 and Table 3).
(§2) The boar sperm cells exposed for 2 days to commercial chaetoglobosin A and the crude extract of MTAV35 and MTAV37 were double-stained with the viability stains PI + calcein–AM, the SMIDR assay, as described earlier. The staining protocol was as follows: 200 μL of extended boar semen containing 27 × 10^6 sperm cells mL^−1 was mixed with 200 μL PBS containing 3 μg mL^−1 calcein-AM and 10 μg mL^−1 PI. The ΔΨm assay monitored the mitochondrial membrane potential changes (ΔΨm) by staining with the lipophilic potentiometric dye JC-1 as described by Mikkola et al. (2015). For the staining with JC-1 (35 µg mL^−1), 200 µL of the sperm cells were shaken and incubated at 37 °C for 5 min. After staining, the cells exposed in the SMIDR and the ΔΨm assays were inspected with fluorescence microscope using 400× magnification (Nikon Eclipse E600, Nikon Corporation, Tokyo Japan) with filters BP 450–490 nm/LP 520. The calcein–AM-stained cells with intact plasma membranes produced green fluorescence, whereas the PI-dyed cells with damaged plasma membranes produced red fluorescence. In JC-1 stained sperm cells, mitochondria with high membrane potential emitted yellow fluorescence, whereas depolarized mitochondria fluoresced green.
(§3) The EC50 concentration in these microscopic assays was defined as the lowest concentration where the ratio of cells similar to those in the solvent control was less than 50%. This EC50 fitted between EC90 and EC10 observed in the microscope calculating ca. 100–120 sperm cells from three microscopic fields. The maximal difference between four parallel tests in each of the two methods was one dilution step. The assays were calibrated with triclosan.

[3] = test system: resting boar spermatozoa; experiment: Motility inhibition of resting boar spermatozoa (BSMIR); format: cell-based; conditions: resting boar sperm; for EC50: Spermatozoa
Protocol: as §1
The procedure for the BSMIR assay measuring sublethal toxicity as motility inhibition, i.e., inability to respond to induction of motility in resting sperm cells is described below: The ethanol solutions (0.5–10 μL) were dispensed in 2000 μL of extended boar semen (Figen Ltd., Tuomikylä, Finland, density of 27 × 10^6 sperms mL^−1) incubated at 24 °C, and motility of the sperms was inspected in the phase-contrast microscope (400× magnification) with a heated stage, (Olympus CKX41, Tokyo, Japan; magnification 400×) and an image recording software (Cellsense® standard version 11.0.06, Olympus Soft Imaging Solutions GmbH, Münster, Germany, 2012) as described previously. […] The EC50 was calculated from the equation of the straight line between EC50-40 and EC80-90: Y = −ΔY/ΔX × X + C where Y is the motility closest to 50% of the motility of the solvent control, X is the EC50 concentration and C is a constant between 100% and 60%. All tests were run in triplicates and differences between replicate tests were within one dilution step (2-fold). The sperm assays were calibrated with triclosan and valinomycin.

[4] = test system: boar spermatozoa; experiment: cells; format: cell-based; conditions: for EC50: Spermatozoa, read-out: EC50 SMIDM Boar Sperm 2 h
[5] = test system: resting PK-15 cells; experiment: Mitochondrial damage test: accelerated glucose consumption and extracellular acidosis; format: cell-based, porcine; conditions: for sublethal concentration that promoted the acceleration of glycolysis: PK-15 cells, positive controls for mitochondrial toxicity; for EC50: Sus scrofa
Protocol: The mitochondria were depolarized in sperm cells exposed to sublethal concentrations of chaetoglobosin A (Figure 5) and to the chaetoglobosin-containing extracts (Table 3). This observation aroused the suspicion regarding mitochondrial toxicity. The mitochondrial toxicity of the extracts containing chaetoglobosin was assessed by measuring the accelerated glucose consumption in resting PK-15 cells. […] By contrast, the positive controls for mitochondrial toxicity—enniatin B, moniliformin and valinomycin at sublethal concentrations of 1.5, 4 and 5 ng mL^−1, respectively—promoted the acceleration of glycolysis.
The test for mitochondrial damage as indicated by accelerated glucose consumption and extracellular acidosis was described earlier. The PK-15 cells were grown in 8-well flat-bottom chamber glass slides, seeded to a density of 4 × 10^4 cells mL^−1, in the respective medium for 48 h. The twofold serially diluted test substances or the vehicle only was dispensed into the wells. The glucose content of the wells was measured by using a glucose meter (Precision Xceed; Abbott Diabetes Care Ltd., Berkshire, United Kingdom). In wells that received nothing or the vehicle only, the glucose concentration decreased from an initial concentration (0 h) of 12 to 6 mM (24 h), but the pH remained as pH of 7.2. A glucose concentration after 24 h of ≤3 mM indicated excessive glucose consumption. Prior to the measurement of the pH, the chamber slides were transferred into ambient air for 1 h to allow CO2 to evaporate. A pH drop of 0.5 units in the toxin-exposed well compared to the vehicle only was considered proof of acidosis. Mitochondrial depolarization (ΔΨm assay) was read by a fluorescence microscope after 26 h of exposure to the toxicants from the monolayers double stained with the membrane potential-responsive fluorogenic dye JC-1 and with propidium iodide to assess the relaxing of the plasma membrane permeability barrier, similar to what was reported previously for sperm cells (27).

[6] = test system: boar spermatozoa; experiment: cells; format: cell-based; conditions: for EC50: Spermatozoa, read-out: EC50 BSMIM Boar Sperm 20 min
[7] = test system: resting boar spermatozoa; experiment: Plasma membrane integrity of resting spermatozoa (SMIDR), calcein-AM + PI; format: cell-based; conditions: resting boar sperm, 24 °C; for CC50: Spermatozoa, 48 h, 2 days, read-out: EC50 Lethal Toxicity SMIDR 2 days
Protocol: as §1, with “The long-term effects of exposure to chaetoglobosin A and to the chaetoglobosin-containing extracts of the Ch. globosum MTAV35 and MTAV37 strains were measured in resting sperm cells exposed at 24 °C for two days. Three” for “Three”
as §2, §3

[8] = test system: murine neuroblastoma cells (MNA); experiment: Inhibition of cell proliferation (ICP) assay, MNA; format: cell-based; conditions: MNA, 2 days, 37 °C
Protocol: The plate-grown biomass of the fungal pure cultures (100–300 mg) was extracted with ethanol as described earlier. The toxicity assays, namely BSMI assay after exposure for 30 min (rapid inhibition) and for one day (slow inhibition), SMID assay and ICP assay, were all described previously. The toxicity assays involving the ethanol extracts obtained from pure fungal cultures were performed using porcine cells (sperms and somatic cell lines) as indicators according to methods described before. The calculation of EC50—the half maximal effective concentration for the ethanol-dry substances and pure mycotoxins in the BSMI, SMID and ICP assays—were described previously.
The continuous cell line PK-15 (porcine kidney cells) and a malignant cell line (MNA cell line) provided by EVIRA (Helsinki, Finland) were used in the ICP assay. 5,5′,6,6′-tetrachloro-1,1′,3,3′-tetraethyl-benzimidazolylcarbocyanine iodide (JC-1, 3520-43-2), PI (25535-16-4) and calcein-AM (148504-34-1) were obtained from Invitrogen (Carlsbad, CA, USA). Alamethicin A4665 (T. arundinaceum) (CAS 27061-78-5), a mixture of alamethicin F50 peptaibols (MW 1962, 1976, 1976 and 1990), chaetoglobosin A (CAS 50335-03-0), sterigmatocystin (CAS 10048-13-5) and ochratoxin A (CAS 303-47-9) were obtained from Sigma-Aldrich (St. Louis, MO, USA). Malt extract and tryptic soy agar were obtained from Scharlab (Barcelona, Spain). The other chemicals were of analytical grade and were purchased from local suppliers. The biocides and the wetting agent Genapol-080 were purchased from Sigma-Aldrich Finland. The fungicide Boracol 10Rh was obtained from a local supplier. The selected biocides were Borax (600 µg mL^−1; sodium tetraborate, CAS: 1330-43-4), Boracol 10Rh containing disodium octaborate tetrahydrate (CAS: 12280-03-04) and didecyldimethylammonium chloride [CAS: 7173-51-5]), PHMB (CAS: 27083-27-8), phenoxyethanol (CAS: 122-99-6), chloramine, triclosan (5-Chloro-2-(2,4-dichlorophenoxy)phenol, CAS: 3380-34-5) and the wetting agent Genapol X-080 (CAS: 9043-30-5). Genapol X-080 and the biocides were purchased from Sigma-Aldrich, except for Boracol 10Rh, which was purchased from a local supplier.

[9] = 48 h, JC-1, 2 days, read-out: EC50 Sublethal Toxicity Depletion of ΔΨm 2 days
[10] = 48 h, 24 °C, 2 days, read-out: EC50 Sublethal Toxicity BSMIR 2 days
[11] = 24 h, PK-15, 1 day, read-out: EC50 Sublethal Toxicity Acceleration of glycolysis 1 day
[12] = 48 h, PK-15, 2 days, read-out: EC50 Sublethal Toxicity Acidosis 2 days
[13] = 20 min, motile boar sperm, 20 min, 37 °C

Row | Compound | EC50 ([1]; PK-15, 2 days, 37 °C) | EC50 [2, 9] | EC50 [3, 10] | EC50 ([4]; motile boar sperm, 2 h, 37 °C) | sublethal concentration that promoted the acceleration of glycolysis [5] | EC50 [5, 11] | EC50 [5, 12] | lethal concentration in resting PK-15 cells (number in parenthesis) [5] | EC50 [6, 13] | CC50 [7] | EC50 Sublethal Toxicity Depletion of ΔΨm 2 days ([2]; JC-1, 2 days) | EC50 Sublethal Toxicity BSMIR 2 days ([3]; 24 °C, 2 days) | EC50 Sublethal Toxicity Acceleration of glycolysis 1 day ([5]; PK-15, 1 day) | EC50 Sublethal Toxicity Acidosis 2 days ([5]; PK-15, 2 days) | also measured
1 | CC(C)[C@@H]1NC(=O)[C@H](C)OC(=O)[C@@H](C(C)C)NC(=O)[C@@H](C(C)C)OC(=O)[C@H](C(C)C)NC(=O)[C@H](C)OC(=O)[C@@H](C(C)C)NC(=O)[C@@H](C(C)C)OC(=O)[C@H](C(C)C)NC(=O)[C@H](C)OC(=O)[C@@H](C(C)C)NC(=O)[C@@H](C(C)C)OC1=O [Valinomycin] | 14 µg/mL (≈ 12.6 µM) | 0.05 ng/mL (≈ 4.5e-05 µM) | 0.05 ng/mL (≈ 4.5e-05 µM) | 70 µg/mL (≈ 63 µM) | 5 ng/mL | 0.005 µg/mL (≈ 0.0045 µM) | 0.005 µg/mL (≈ 0.0045 µM) | 5 µg/mL | 0.0001 µg/mL (≈ 9e-05 µM) | 5 µg/mL | – | – | – | – | EC50 ([2]; 96 h, JC-1, 4 days, read-out: EC50 Sublethal Toxicity Depletion of ΔΨm 4 days): 0.05 ng/mL (≈ 4.5e-05 µM); EC50 ([3]; 96 h, 4 days, read-out: EC50 Sublethal Toxicity BSMIR 4 days): 0.05 ng/mL (≈ 4.5e-05 µM)
2 | Alamethicin | – | – | – | – | – | – | – | – | – | – | 0.2 µg/mL | 0.2 µg/mL | None | None | EC50 ICP PK-15 2 days ([1]; PK-15, 2 days, 37 °C): 8 µg dry wt mL^−1; EC50 SMIDM Boar Sperm 2 h ([4]; motile boar sperm, 2 h, 37 °C): 1 µg dry wt mL^−1; EC50 BSMIM Boar Sperm 20 min ([6]; motile boar sperm, 20 min, 37 °C): 5 µg dry wt mL^−1; EC50 ICP MNA 2 days [8]: 8 µg dry wt mL^−1; EC50 Lethal Toxicity SMIDR 2 days [7]: 0.2 µg/mL
3 | COc1cc2c(c3oc4cccc(O)c4c(=O)c13)[C@@H]1C=CO[C@@H]1O2 [Sterigmatocystin, sterigmatocystin] | – | – | – | – | – | – | – | – | – | – | – | – | – | – | EC50 ICP PK-15 2 days [1]: 0.5 µg dry wt mL^−1; EC50 SMIDM Boar Sperm 2 h [4]: >20 µg dry wt mL^−1; EC50 BSMIM Boar Sperm 20 min [6]: >20 µg dry wt mL^−1
4 | CC(C)[C@H]1C(=O)O[C@H](C(C)C)C(=O)N(C)[C@@H](C(C)C)C(=O)O[C@H](C(C)C)C(=O)N(C)[C@@H](C(C)C)C(=O)O[C@H](C(C)C)C(=O)N1C [Enniatin B] | – | 5000 ng/mL (≈ 7.81 µM) | 5000 ng/mL (≈ 7.81 µM) | – | – | 5 µg/mL (≈ 7.81 µM) | 5 µg/mL (≈ 7.81 µM) | 50 µg/mL | – | > 50 µg/mL | – | – | – | – | –
5 | O=c1cc(O)c1=O [Moniliformin] | – | – | – | – | 4 ng/mL | – | – | 40 µg/mL | – | – | None | 2 µg/mL (≈ 20.4 µM) | 4 µg/mL | 4 µg/mL (≈ 40.8 µM) | –
6 | CC1=C2C(=CO[C@H](C)[C@H]2C)C(O)=C(C(=O)O)C1=O [Citrinin, reference compound] | 10 µg/mL (≈ 40 µM) | – | – | 50 µg/mL (≈ 200 µM) | – | – | – | – | > 100 µg/mL | – | – | – | – | – | EC50 ([8]; Mus musculus, Neuroblastoma cell, 48 h, read-out: EC50 ICP MNA 2 days): 10 µg/mL (≈ 40 µM)
